In patent publication US8048915B2, “Biologically active complex” (BioMas Ltd., priority 2001, dated 2011):
Values joined by “and” are separate entries in the source; they are usually repeats but may differ in a detail not shown here. Identical values can stand only once. Like-named read-outs stand apart in the source and are kept apart here.

Assays:
[1] = system: Ha-Ras transformed NIH-3T3 cells; test: Colony growth of Ha-Ras transformed NIH-3T3 cells; type: cell-based; conditions: 0.005-5 μg/ml in PBS; one week; clones counted
Protocol: (§1) 5×10^2 cells were plated per 60 mm dish and incubated with different concentrations (0.005-5 μg/ml) of the complex in PBS. A week later, the cells were stained with Gimsa and clones were counted. Similar experiments were conducted using V-mos transformed NIH-3T3 cells, and also using Ph2TeCl2 and Ph3TeCl, with both types of transformed cells.

[2] = system: V-mos transformed NIH-3T3 cells; test: Colony growth of V-mos transformed NIH-3T3 cells; type: cell-based; conditions: one week; clones counted
Protocol: as §1

[3] = Solubility in phosphate buffer solution (PBS) at pH7; type: physicochemical
[4] = system: IL-2 receptors of human mononuclear cells; test: Induction of IL-2 receptors of human mononuclear cells (proliferation with recombinant IL-2, 3H thymidine uptake); type: cell-based
Protocol: Human MNC were brought to a concentration of 10^6 cells/ml. RPMI+10% FCS. Aliquots of 0.2 ml. were placed in duplicate wells of microdishes and plates were incubated at 37° C. for 24 hrs. […] Plates were further incubated for 48 hrs and labeled with ^3H thymidine 24 hrs before harvesting. The proliferation was measured by ^3HT uptake as described by Gillis et al, J. Immunol. […] The results are expressed in counts per minute.

human mononuclear cells [5] = test: Proliferation of human mononuclear cells (Example 14); type: cell-based; conditions: for proliferation of human mononuclear cells (3H methyl-thymidine): 72 hours + 24 hours label
Protocol: Human mononuclear cells were obtained by layering heparinized blood over a Ficoll/Hypaque gradient. The mononuclear cells were resuspended in enriched RPMI, rinsed three times and brought to a concentrations of 5×10^5cells/ml enriched RPMI. Varying concentrations of the complexes of Ex. 1 and Ex. 7(a), ranging from 0.005 μg to 5 μg/cell mixture were added to the cells. Aliquots of 0.2 ml of each sample were placed in wells of microplates (triplicates).

IL-2 receptors = test: IL-2 receptor sites on human mononuclear cells, fluoresceinated antibody; type: cell-based
Protocol: This example provides an assay to detect the presence of receptor sites for IL-2. […] The cells were washed twice with PBS and then incubated with a specific fluoresceinated antibody against IL-2 receptors as described in Uchiyama et al, J. Immunol.

human mononuclear cells [6] = test: Proliferation of human mononuclear cells (Example 14); type: cell-based; conditions: 72 hours + 24 hours label
human mononuclear cells [7] = conditions: range of 1 to 10 ng/ml of cells; 72 hours incubation
Protocol: Aliquots of 0.2 ml from each sample were placed in wells of microplates (NUNC) (triplicates). […] Cells were further incubated overnight and harvested with a cell harvester.
Cells were further incubated overnight and harvested with a cell harvester.

IL-2 = system: IL-2
Protocol: The complexes were administered in these dilutions, as drinking water, to male Balb-C mice, 6-8 weeks of age over a 4 day period. The exact amount of liquid intake was recorded daily. […] The cells were incubated at a concentration of 10^7 cells/ml in enriched RPMI containing 2 μg/ml of con-A for 24 hours at 37° C. The supernatants were collected and tested for IL-2 content.

[8] = 10 μg/ml H2O as drinking water over 4 days

Cl[Te](Cl)(c1ccccc1)c1ccccc1 [Ph2TeCl2, reference compound]
number of colonies / growth compared with control [1]: did not inhibit their growth | inhibition of growth [2]: none of the complex, Ph2TeCl2 or Ph3TeCl inhibited the growth

Cl[Te](c1ccccc1)(c1ccccc1)c1ccccc1 [Ph3TeCl, reference compound]
number of colonies / growth compared with control [1]: did not inhibit their growth | inhibition of growth [2]: none of the complex, Ph2TeCl2 or Ph3TeCl inhibited the growth

Cl[Te](Cl)(Cl)Cl [TeCl4, tellurium tetrachloride]
solubility [3]: 2.3 ± 0.1; mg Te/100 ml PBS

O=[Te]=O [TeO2, Tellurium dioxide, reference compound]
proliferation, 3HT uptake ([4]; Test A, 1 μg/ml): 1563 counts per minute | proliferation, 3HT uptake ([4]; Test A, 1 × 10^−2 μg/ml): 3108 counts per minute | proliferation, 3HT uptake ([4]; Test A, 1 × 10^−3 μg/ml): 2867 counts per minute | proliferation, 3HT uptake ([4]; Test A, 1 × 10^−4 μg/ml): 5540 counts per minute | proliferation, 3HT uptake ([4]; Test A, 1 × 10^−5 μg/ml): 3442 counts per minute | proliferation, 3HT uptake ([4]; Test A, 5 × 10^−1 μg/ml): 4667 counts per minute | proliferation, 3HT uptake ([4]; Test A, 5 × 10^−2 μg/ml): 2515 counts per minute | proliferation, 3HT uptake ([4]; Test A, 7 × 10^−1 μg/ml): 2475 counts per minute | proliferation, 3HT uptake ([4]; Test B, 1 μg/ml): 3275 counts per minute | proliferation, 3HT uptake ([4]; Test B, 1 × 10^−2 μg/ml): 3077 counts per minute | proliferation, 3HT uptake ([4]; Test B, 1 × 10^−3 μg/ml): 3800 counts per minute | proliferation, 3HT uptake ([4]; Test B, 1 × 10^−4 μg/ml): 2925 counts per minute | proliferation, 3HT uptake ([4]; Test B, 1 × 10^−5 μg/ml): 3645 counts per minute | proliferation, 3HT uptake ([4]; Test B, 5 × 10^−1 μg/ml): 5405 counts per minute | proliferation, 3HT uptake ([4]; Test B, 5 × 10^−2 μg/ml): 4280 counts per minute | proliferation, 3HT uptake ([4]; Test B, 7 × 10^−1 μg/ml): 4302 counts per minute | proliferation of human mononuclear cells (3H methyl-thymidine) (human mononuclear cells [5]; 1 μg/ml): 2842 | proliferation of human mononuclear cells (3H methyl-thymidine) (human mononuclear cells [5]; 5 μg/ml): 3028 | proliferation of human mononuclear cells (3H methyl-thymidine) (human mononuclear cells [5]; 1 × 10^−1 μg/ml): 4825 | proliferation of human mononuclear cells (3H methyl-thymidine) (human mononuclear cells [5]; 1 × 10^−2 μg/ml): 4730 | proliferation of human mononuclear cells (3H methyl-thymidine) (human mononuclear cells [5]; 5 × 10^−1 μg/ml): 4773 | proliferation of human mononuclear cells (3H methyl-thymidine) (human mononuclear cells [5]; 5 × 10^−2 μg/ml): 5802 | effect on proliferation of human mononuclear cells (human mononuclear cells [5]; any concentration that was tested): *The concentrations that induced proliferation range from 5 × 10^−1 to 1 × 10^−1 μg. No significant effect was found for TeO2 at any concentration that was tested. | cells positive for IL-2 receptors (IL-2 receptors; 1 μg/ml, 24 hours incubation): 5% | proliferation of human mononuclear cells (3H methyl-thymidine) (human mononuclear cells [6]; 1 × 10^−3 μg/ml): 6168 | proliferation of human mononuclear cells (3H methyl-thymidine) (human mononuclear cells [6]; 1 × 10^−4 μg/ml): 5331

C1CO[Te]2(O1)OCCO2 [preparation 3]
solubility [3]: 16 ± 0.4; mg Te/100 ml PBS

Phytohemagglutinin M [Phytohemagglutinin M (Difco), reference compound]
proliferation, 3HT uptake ([4]; Test A, positive control, concentration not given): Phytohemagglutinin M (Difco) 195,432 counts per minute | proliferation, 3HT uptake ([4]; Test B, positive control, concentration not given): Phytohemagglutinin M (Difco) 125,272 counts per minute | cells positive for IL-2 receptors (IL-2 receptors; in the presence of PHA, concentration not given): 80%

equimolar complex of TeO2 and ethane-1,2-diol [7(b)]
proliferation, 3HT uptake ([4]; Test B, 1 μg/ml): 2620 counts per minute | proliferation, 3HT uptake ([4]; Test B, 1 × 10^−2 μg/ml): 3928 counts per minute | proliferation, 3HT uptake ([4]; Test B, 1 × 10^−3 μg/ml): 3007 counts per minute | proliferation, 3HT uptake ([4]; Test B, 1 × 10^−4 μg/ml): 2327 counts per minute | proliferation, 3HT uptake ([4]; Test B, 1 × 10^−5 μg/ml): 2242 counts per minute | proliferation, 3HT uptake ([4]; Test B, 5 × 10^−1 μg/ml): 2402 counts per minute | proliferation, 3HT uptake ([4]; Test B, 5 × 10^−2 μg/ml): 3290 counts per minute | proliferation, 3HT uptake ([4]; Test B, 7 × 10^−1 μg/ml): 2000 counts per minute

equimolar complex of TeO2 and ethylene glycol [Example 7(a)]
increase of proliferation of human mononuclear cells (human mononuclear cells [7]): 10 fold | IL-2 content, cpm (IL-2; 1 μg/ml H2O as drinking water over 4 days): 32843 cpm | IL-2 content, cpm (IL-2; [8]): 42500 cpm | Percent increase as compared to control (IL-2; [8]): +30% | IL-2 content, cpm (IL-2; 25 μg/ml H2O as drinking water over 4 days): 36815 cpm | inducing lymphokine production when given orally (IL-2; orally in an aqueous diluent): active | proliferation, 3HT uptake ([4]; Test B, 1 μg/ml): 9315 counts per minute | proliferation, 3HT uptake ([4]; Test B, 1 × 10^−2 μg/ml): 6418 counts per minute | proliferation, 3HT uptake ([4]; Test B, 1 × 10^−3 μg/ml): 5167 counts per minute | proliferation, 3HT uptake ([4]; Test B, 1 × 10^−4 μg/ml): 5372 counts per minute | proliferation, 3HT uptake ([4]; Test B, 1 × 10^−5 μg/ml): 6397 counts per minute | proliferation, 3HT uptake ([4]; Test B, 5 × 10^−1 μg/ml): 8688 counts per minute | proliferation, 3HT uptake ([4]; Test B, 5 × 10^−2 μg/ml): 5538 counts per minute | proliferation, 3HT uptake ([4]; Test B, 7 × 10^−1 μg/ml): 5250 counts per minute | proliferation of human mononuclear cells (3H methyl-thymidine) (human mononuclear cells [5]; 1 × 10^−4 μg/ml, listed as Ex. 7(a)): 4321 and 2332 | proliferation of human mononuclear cells (3H methyl-thymidine) (human mononuclear cells [5]; 5 × 10^−2 μg/ml, listed as Ex. 7(a)): 5953 and 5532
